The values that follow come from patent US20260272895A1, “METHODS AND KITS FOR DELIVERY OF COMPOUNDS INTO CELLS” (Yale University, priority 2023, published 2026).

What all share (type): cell-based
One assay has as its system NIH3T3 cells. Nature of the assay: Assessment of pharmacological effects in vitro in NIH3T3 cells (tubulin staining, multinucleated cells).
In the next assay the target is T1, SLCO1A2 (Homo sapiens, UniProt P46721).
T1 sequence (P46721 1-670): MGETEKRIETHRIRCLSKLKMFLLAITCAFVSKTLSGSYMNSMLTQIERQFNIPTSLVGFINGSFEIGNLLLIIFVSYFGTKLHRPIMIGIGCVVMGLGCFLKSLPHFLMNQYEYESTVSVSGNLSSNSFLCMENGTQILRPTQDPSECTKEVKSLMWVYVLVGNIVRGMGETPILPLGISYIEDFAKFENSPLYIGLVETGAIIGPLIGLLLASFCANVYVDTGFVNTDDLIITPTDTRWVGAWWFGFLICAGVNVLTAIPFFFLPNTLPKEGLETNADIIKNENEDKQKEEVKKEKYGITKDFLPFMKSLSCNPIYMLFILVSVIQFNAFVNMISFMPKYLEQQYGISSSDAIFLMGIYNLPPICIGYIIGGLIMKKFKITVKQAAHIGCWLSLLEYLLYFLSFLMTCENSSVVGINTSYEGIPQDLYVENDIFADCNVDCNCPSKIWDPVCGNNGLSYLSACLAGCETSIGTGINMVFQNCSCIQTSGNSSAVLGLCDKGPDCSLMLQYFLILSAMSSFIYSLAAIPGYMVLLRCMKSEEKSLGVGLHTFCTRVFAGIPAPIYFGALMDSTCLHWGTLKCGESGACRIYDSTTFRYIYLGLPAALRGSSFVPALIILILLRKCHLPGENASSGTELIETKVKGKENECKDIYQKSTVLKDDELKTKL
Put plainly: Compound uptake in HEK293 cells transfected with SLCO1A2. Also noted: FLAG. The note with it: concentration not given. Here is the method:
(§1) HEK293 cells are cultured and seeded at ~60% confluency in 24-well plates and are transiently transfected with 250 ng of a candidate transporter and 1 μL transfection reagent (JetPRIME). After 2 days, cells are washed and novel fluorescent probes at different concentrations are added to the transport medium and incubated at 37° C., for at least 30 minutes. To terminate the transport, cells are washed with PBS and fixed with 4% paraformaldehyde. The colocalization of probe uptake and cells expressing the transporters is investigated by immunostaining the transporter which has a fused FLAG tag, using anti-FLAG 488. Before confocal imaging, nuclei are labeled with Hoechst 33342 and cells are mounted and imaged on a Leica SP8 confocal microscope.
(§2) For in vitro experiments, HEK293 cells were cultured and seeded in 24-well plates, reaching approximately 60% confluency. For transient transfection, 250 ng of a candidate transporter plasmid and 1 μL of transfection reagent (JetPRIME) were added to the cells. After a 2-day incubation period, the cells were washed, and novel fluorescent probes were introduced into the transport medium at various concentrations. The cells were then incubated at 37° C., for a minimum of 30 minutes to allow for uptake. To stop the transport process, the cells were washed with PBS and fixed using 4% paraformaldehyde. Immunostaining of the transporter, which was fused with a FLAG tag, was performed using an anti-FLAG 488 antibody. Before confocal imaging, the cell nuclei were labeled with Hoechst 33342. Finally, the cells were mounted and imaged using a Leica SP8 confocal microscope.

Another assay addresses T2, Slco1a4 (Mus musculus, UniProt Q9EP96).
T2 sequence (Q9EP96 1-670): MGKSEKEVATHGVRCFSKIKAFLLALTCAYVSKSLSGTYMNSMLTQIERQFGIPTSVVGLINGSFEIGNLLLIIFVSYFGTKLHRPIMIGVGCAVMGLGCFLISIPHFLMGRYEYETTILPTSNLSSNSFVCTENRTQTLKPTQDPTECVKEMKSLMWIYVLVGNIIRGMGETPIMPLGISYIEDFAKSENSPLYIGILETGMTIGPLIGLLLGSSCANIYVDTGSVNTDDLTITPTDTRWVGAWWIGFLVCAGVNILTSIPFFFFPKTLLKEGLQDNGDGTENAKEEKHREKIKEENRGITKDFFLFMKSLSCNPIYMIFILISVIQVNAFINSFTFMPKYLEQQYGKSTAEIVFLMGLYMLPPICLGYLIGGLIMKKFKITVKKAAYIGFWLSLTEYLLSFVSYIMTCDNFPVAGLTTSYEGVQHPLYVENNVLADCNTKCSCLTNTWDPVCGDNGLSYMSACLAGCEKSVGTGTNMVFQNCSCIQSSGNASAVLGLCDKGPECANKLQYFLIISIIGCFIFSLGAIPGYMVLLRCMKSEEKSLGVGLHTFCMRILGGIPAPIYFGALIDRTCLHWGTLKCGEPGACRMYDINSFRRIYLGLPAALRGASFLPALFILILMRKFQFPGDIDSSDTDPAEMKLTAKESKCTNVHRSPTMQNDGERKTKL
Nature of the assay: Compound uptake in HEK293 cells transfected with Slco1a4. Also noted: FLAG; expressed in transfected cells. The note with it: concentration not given. Here is the method:
as §1, §2

From the text for NIH3T3 cells: Confocal microscopy of the different treatment groups allowed us to visualize Hoechst dye-labeled nuclei to quantify the proportion of cells with multinucleated phenotype which is known to occur with Colchicine treatments.

Consider `COc1cc2c(c(OC)c1OC)-c1ccc(OC)c(=O)cc1[C@@H](NC(C)=O)CC2` [Colchicine], for which the alpha tubulin staining result with NIH3T3 cells (30 μM, NIH3T3 cells (FIG. 11A)) was “equal disruption of the tubulin structure”; in the assay with NIH3T3 cells (100 μM, NIH3T3 cells (FIG. 11B)), “equal disruption of the tubulin structure”. In addition, the phalloidin staining entry is given as “disruption of the tubulin structure” with NIH3T3 cells (100 μM, NIH3T3 cells (FIG. 11D)) and “equal disruption of the tubulin structure” in the assay with NIH3T3 cells (NIH3T3 cells (FIG. 11C), concentration not given). The “cell morphology / multinucleated cells” value in the assay on NIH3T3 cells (NIH3T3 cells (FIG. 17A)) was “changes in cell morphology and presence of multinucleated cells”. In addition, the “pattern of α-tubulin immunofluorescence” value in the assay with NIH3T3 cells (NIH3T3 cells, 12 hours, varying concentrations (FIG. 17A)) is “diffuse labeling pattern”.
Take `CCN(CC)c1ccc2c(-c3ccc(S(=O)(=O)NCCNC(=O)c4ccc(Nc5nc(N(C)[C@H]6CN(C(=O)CC#N)CC[C@H]6C)c6cc[nH]c6n5)cc4)cc3S(=O)(=O)[O-])c3ccc(=[N+](CC)CC)cc-3oc2c1` [Compound 53, 5-(N-(2-(4-((4-(((3R,4R)-1-(2-cyanoacetyl)-4-methylpiperidin-3-yl)(methyl)amino)-7H-pyrrolo[2,3-d]pyrimidin-2-yl)amino)benzamido)ethyl)sulfamoyl)-2-(6-(diethylamino)-3-(diethyliminio)-3H-xanthen-9-yl)benzenesulfonate]: the “uptake in SLCO1A2 transfected HEK293 cells” value at SLCO1A2 is “is taken up”. Also, the “uptake in Slco1a4 transfected HEK293 cells” value on Slco1a4 is on record as “is taken up”.
